Assay results: ChEMBL document CHEMBL3885881, “DrugMatrix”

Organism: Rattus norvegicus
Assay: DrugMatrix - Regimen: Daily Repeat
Assay type: toxicity, organism-based, Sprague-Dawley
Parameters: regimen Daily Repeat, gender Male, age 6-8 weeks
Settings: in vivo, po, route oral GAVAGE, vehicle .5 % CMC; for ABSOLUTE BASOPHIL / ABSOLUTE EOSINOPHIL / ABSOLUTE LYMPHOCYTE / ABSOLUTE MONOCYTE / ABSOLUTE SEGMENTED NEUTROPHIL / BASOPHIL / EOSINOPHIL / ERYTHROCYTE COUNT / HEMATOCRIT / HEMOGLOBIN / LEUKOCYTE COUNT / LYMPHOCYTE / MEAN CORPUSCULAR HEMOGLOBIN / MEAN CORPUSCULAR HEMOGLOBIN CONCENTRATION / MEAN CORPUSCULAR VOLUME / MONOCYTE / NEUTROPHIL / NUCLEATED RED BLOOD CELLS / PLATELET COUNT: tissue Blood; for ALANINE AMINOTRANSFERASE / ALBUMIN / ALKALINE PHOSPHATASE / ASPARTATE AMINOTRANSFERASE / BLOOD UREA NITROGEN / CARBON DIOXIDE / CHLORIDE / CHOLESTEROL / CREATINE PHOSPHOKINASE / CREATININE / GLUCOSE / LACTATE DEHYDROGENASE / LIPASE / PHOSPHORUS / POTASSIUM / SODIUM / TOTAL BILIRUBIN / TOTAL PROTEIN / URIC ACID: tissue Plasma
[1] = 20 mg/kg, 72 h, dose level Low, time 3 day
[2] = 20 mg/kg, 120 h, dose level Low, time 5 day
[3] = 600 mg/kg, 72 h, dose level High, time 3 day
[4] = 600 mg/kg, 120 h, dose level High, time 5 day

For CC(C)CN(C[C@@H](O)[C@H](Cc1ccccc1)NC(=O)O[C@H]1CCOC1)S(=O)(=O)c1ccc(N)cc1, the “ABSOLUTE BASOPHIL” value [1] was 0 CELLS/uL, the “ABSOLUTE EOSINOPHIL” value [1] was 148.67 CELLS/uL and the “ABSOLUTE LYMPHOCYTE” value [1] was 12756.67 CELLS/uL. The “ABSOLUTE MONOCYTE” value [1] was 107.67 CELLS/uL, the “ABSOLUTE SEGMENTED NEUTROPHIL” value [1] was 887 CELLS/uL and the BASOPHIL [1] was 0%. The EOSINOPHIL [1] was 1%, the “ERYTHROCYTE COUNT” value [1] was 5.52 x10E6/uL and the HEMATOCRIT [1] was 35.2%. The HEMOGLOBIN [1] was 13.3 G/DL, the “LEUKOCYTE COUNT” value [1] was 13.9 x10E3/uL and the LYMPHOCYTE [1] was 91.67%. For the same molecule, the “MEAN CORPUSCULAR HEMOGLOBIN” value [1] was 24.17 pg, the “MEAN CORPUSCULAR HEMOGLOBIN CONCENTRATION” value [1] was 37.8 G/DL and the “MEAN CORPUSCULAR VOLUME” value [1] was 63.87 fL. For the same molecule, the MONOCYTE [1] was 0.67%, the NEUTROPHIL [1] was 6.67% and the “NUCLEATED RED BLOOD CELLS” value [1] was 0 /100WBC. The “PLATELET COUNT” value [1] was 1248.33 x10E3/uL, the “ALANINE AMINOTRANSFERASE” value [1] was 50 u/L and the ALBUMIN [1] was 4.23 G/DL. For the same molecule, the “ALKALINE PHOSPHATASE” value [1] was 362 u/L, the “ASPARTATE AMINOTRANSFERASE” value [1] was 76.33 u/L and the “BLOOD UREA NITROGEN” value [1] was 16.33 mg/dL. The “CARBON DIOXIDE” value [1] was 26 mmol/L, the CHLORIDE [1] was 102 MEQ/L and the CHOLESTEROL [1] was 67 mg/dL. The “CREATINE PHOSPHOKINASE” value [1] was 172.67 u/L, the CREATININE [1] was 0.21 mg/dL and the GLUCOSE [1] was 169.67 mg/dL. The “LACTATE DEHYDROGENASE” value [1] was 136.67 u/L, the LIPASE [1] was 8 u/L and the PHOSPHORUS [1] was 12.83 mg/dL. The POTASSIUM [1] was 6.23 MEQ/L, the SODIUM [1] was 144.7 MEQ/L and the “TOTAL BILIRUBIN” value [1] was 0.17 mg/dL. The “TOTAL PROTEIN” value [1] was 6.07 G/DL, the “URIC ACID” value [1] was 1.83 mg/dL and the “ABSOLUTE BASOPHIL” value [2] was 0 CELLS/uL. For the same molecule, the “ABSOLUTE EOSINOPHIL” value [2] was 74 CELLS/uL, the “ABSOLUTE LYMPHOCYTE” value [2] was 7729 CELLS/uL and the “ABSOLUTE MONOCYTE” value [2] was 39.33 CELLS/uL. The “ABSOLUTE SEGMENTED NEUTROPHIL” value [2] was 524.33 CELLS/uL, the BASOPHIL [2] was 0% and the EOSINOPHIL [2] was 1%. For the same molecule, the “ERYTHROCYTE COUNT” value [2] was 5.73 x10E6/uL, the HEMATOCRIT [2] was 35.57% and the HEMOGLOBIN [2] was 13.37 G/DL. The “LEUKOCYTE COUNT” value [2] was 8.37 x10E3/uL, the LYMPHOCYTE [2] was 92% and the “MEAN CORPUSCULAR HEMOGLOBIN” value [2] was 23.33 pg. The “MEAN CORPUSCULAR HEMOGLOBIN CONCENTRATION” value [2] was 37.63 G/DL, the “MEAN CORPUSCULAR VOLUME” value [2] was 62.13 fL and the MONOCYTE [2] was 0.33%. For the same molecule, the NEUTROPHIL [2] was 6.67%, the “NUCLEATED RED BLOOD CELLS” value [2] was 0 /100WBC and the “PLATELET COUNT” value [2] was 1179.33 x10E3/uL. The “ALANINE AMINOTRANSFERASE” value [2] was 54.33 u/L, the ALBUMIN [2] was 4.43 G/DL and the “ALKALINE PHOSPHATASE” value [2] was 421.33 u/L. The “ASPARTATE AMINOTRANSFERASE” value [2] was 83 u/L, the “BLOOD UREA NITROGEN” value [2] was 14.33 mg/dL and the “CARBON DIOXIDE” value [2] was 28.33 mmol/L. For the same molecule, the CHLORIDE [2] was 101 MEQ/L, the CHOLESTEROL [2] was 68 mg/dL and the “CREATINE PHOSPHOKINASE” value [2] was 229.67 u/L. The CREATININE [2] was 0.2 mg/dL, the GLUCOSE [2] was 141 mg/dL and the “LACTATE DEHYDROGENASE” value [2] was 108 u/L. For the same molecule, the LIPASE [2] was 8.67 u/L, the PHOSPHORUS [2] was 12.47 mg/dL and the POTASSIUM [2] was 6.58 MEQ/L. The SODIUM [2] was 146.5 MEQ/L, the “TOTAL BILIRUBIN” value [2] was 0.2 mg/dL and the “TOTAL PROTEIN” value [2] was 6.3 G/DL. For the same molecule, the “URIC ACID” value [2] was 1.3 mg/dL, the “ABSOLUTE BASOPHIL” value [3] was 0 CELLS/uL and the “ABSOLUTE EOSINOPHIL” value [3] was 50.33 CELLS/uL. The “ABSOLUTE LYMPHOCYTE” value [3] was 11050.67 CELLS/uL, the “ABSOLUTE MONOCYTE” value [3] was 72.33 CELLS/uL and the “ABSOLUTE SEGMENTED NEUTROPHIL” value [3] was 1093.33 CELLS/uL. For the same molecule, the BASOPHIL [3] was 0%, the EOSINOPHIL [3] was 0.33% and the “ERYTHROCYTE COUNT” value [3] was 5.53 x10E6/uL. For the same molecule, the HEMATOCRIT [3] was 35.5%, the HEMOGLOBIN [3] was 13.6 G/DL and the “LEUKOCYTE COUNT” value [3] was 12.27 x10E3/uL. For the same molecule, the LYMPHOCYTE [3] was 89.67%, the “MEAN CORPUSCULAR HEMOGLOBIN” value [3] was 24.57 pg and the “MEAN CORPUSCULAR HEMOGLOBIN CONCENTRATION” value [3] was 38.27 G/DL. For the same molecule, the “MEAN CORPUSCULAR VOLUME” value [3] was 64.1 fL, the MONOCYTE [3] was 0.67% and the NEUTROPHIL [3] was 9.33%. The “NUCLEATED RED BLOOD CELLS” value [3] was 0 /100WBC, the “PLATELET COUNT” value [3] was 1258 x10E3/uL and the “ALANINE AMINOTRANSFERASE” value [3] was 56.67 u/L. For the same molecule, the ALBUMIN [3] was 4.33 G/DL, the “ALKALINE PHOSPHATASE” value [3] was 381 u/L and the “ASPARTATE AMINOTRANSFERASE” value [3] was 116.67 u/L. The “BLOOD UREA NITROGEN” value [3] was 16 mg/dL, the “CARBON DIOXIDE” value [3] was 25 mmol/L and the CHLORIDE [3] was 107.33 MEQ/L. The CHOLESTEROL [3] was 69 mg/dL, the “CREATINE PHOSPHOKINASE” value [3] was 1567.67 u/L and the CREATININE [3] was 0.18 mg/dL. The GLUCOSE [3] was 194.33 mg/dL, the “LACTATE DEHYDROGENASE” value [3] was 164.67 u/L and the LIPASE [3] was 8.67 u/L. The PHOSPHORUS [3] was 14.17 mg/dL, the POTASSIUM [3] was 6.64 MEQ/L and the SODIUM [3] was 145.83 MEQ/L. The “TOTAL BILIRUBIN” value [3] was 0.23 mg/dL, the “TOTAL PROTEIN” value [3] was 5.97 G/DL and the “URIC ACID” value [3] was 2.07 mg/dL. For the same molecule, the “ABSOLUTE BASOPHIL” value [4] was 0 CELLS/uL, the “ABSOLUTE EOSINOPHIL” value [4] was 292.33 CELLS/uL and the “ABSOLUTE LYMPHOCYTE” value [4] was 15254.33 CELLS/uL. For the same molecule, the “ABSOLUTE MONOCYTE” value [4] was 69 CELLS/uL, the “ABSOLUTE SEGMENTED NEUTROPHIL” value [4] was 1517.67 CELLS/uL and the BASOPHIL [4] was 0%. The EOSINOPHIL [4] was 1.67%, the “ERYTHROCYTE COUNT” value [4] was 5.48 x10E6/uL and the HEMATOCRIT [4] was 34.63%. For the same molecule, the HEMOGLOBIN [4] was 13.17 G/DL, the “LEUKOCYTE COUNT” value [4] was 17.13 x10E3/uL and the LYMPHOCYTE [4] was 88.67%. The “MEAN CORPUSCULAR HEMOGLOBIN” value [4] was 24.03 pg, the “MEAN CORPUSCULAR HEMOGLOBIN CONCENTRATION” value [4] was 38 G/DL and the “MEAN CORPUSCULAR VOLUME” value [4] was 63.2 fL. For the same molecule, the MONOCYTE [4] was 0.33%, the NEUTROPHIL [4] was 9.33% and the “NUCLEATED RED BLOOD CELLS” value [4] was 0 /100WBC. The “PLATELET COUNT” value [4] was 1347.67 x10E3/uL, the “ALANINE AMINOTRANSFERASE” value [4] was 41.67 u/L and the ALBUMIN [4] was 4.2 G/DL. The “ALKALINE PHOSPHATASE” value [4] was 390 u/L, the “ASPARTATE AMINOTRANSFERASE” value [4] was 76.33 u/L and the “BLOOD UREA NITROGEN” value [4] was 15.67 mg/dL. The “CARBON DIOXIDE” value [4] was 27.33 mmol/L, the CHLORIDE [4] was 102.33 MEQ/L and the CHOLESTEROL [4] was 58.67 mg/dL. The “CREATINE PHOSPHOKINASE” value [4] was 202 u/L, the CREATININE [4] was 0.21 mg/dL and the GLUCOSE [4] was 161.33 mg/dL. For the same molecule, the “LACTATE DEHYDROGENASE” value [4] was 95.67 u/L, the LIPASE [4] was 8.33 u/L and the PHOSPHORUS [4] was 12.93 mg/dL. For the same molecule, the POTASSIUM [4] was 6.23 MEQ/L, the SODIUM [4] was 144.37 MEQ/L and the “TOTAL BILIRUBIN” value [4] was 0.17 mg/dL. For the same molecule, the “TOTAL PROTEIN” value [4] was 6 G/DL and the “URIC ACID” value [4] was 1.77 mg/dL.
